Results on 2 substances are retold here after US20210321649A1, “METHOD FOR DETECTING MISHANDLING AND MISUSE OF FOOD PRODUCTS” (SECURITY MATTERS LTD., priority 2016, published 2021).

The series is described as follows: Solubility of marking compounds in ethanol and water (Table 1). The settings on record: for Solubility in Ethanol: solvent ethanol; for Solubility in water: solvent water.

As to “Copper complexes chlorophylls [Copper complexes chlorophylls (E141)]”, the “Solubility in Ethanol” value was “Soluble” and the Solubility in water entry is “Insoluble”.
On the same counts, the results for Vitamin B12 are “Soluble” and “Soluble”.
